In patent publication US11634447B2 (priority 2012, dated 2023) one finds IC50 data, which are given here for 21 molecules.

pIC50: −log10 of the molar value.

The test system of the assay is bacterial strain LF82 binding to the glycoprotein BSA-(Mannose)3. Description: Bacterial Binding Assay (BBA). In kind it is cell-based, Escherichia coli. The conditions noted are these: read-out: Bacterial Binding Assay IC50, LF82/Luciferase strain binding to BSA-(Man)3 coated plates, luminescence. A digest of the protocol:
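Inhibition of LF82/luciferase E. coli adhesion is read as luminescence after washing off unbound cells. Compound and bacteria (10^7 per well) are co-incubated 40-75 min at room temperature on wells coated with 0.5-2 μg/mL BSA-(Man)3, with BSA-only wells as background; IC50 values derived.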
Turning to `Cc1c(C)c(C#C[C@H]2O[C@H](CO)[C@@H](O)[C@H](O)[C@@H]2O)c(C)c(C)c1C#C[C@H]1O[C@H](CO)[C@@H](O)[C@H](O)[C@@H]1O` [Compound 84, (2R,3S,4R,5S,6R)-2-(hydroxymethyl)-6-[2-[2,3,5,6-tetramethy1-4-[2-[(2R,3S,4R,5S,6R)-3,4,5-trihydroxy-6-(hydroxymethyl)tetrahydropyran-2-yl]ethynyl]phenyl]ethynyl]tetrahydropyran-3,4,5-triol], the pIC50 was 6.50.

For `O=C(CN1CCCC1=O)c1c(C#C[C@H]2O[C@H](CO)[C@@H](O)[C@H](O)[C@@H]2O)ccc2c1C1(CCNCC1)c1cc(C#C[C@H]3O[C@H](CO)[C@@H](O)[C@H](O)[C@@H]3O)ccc1-2` [Compound 241, 1-[2-[2,7-bis[2-[(2R,3S,4R,5S,6R)-3,4,5-trihydroxy-6-(hydroxymethyl)tetrahydropyran-2-yl]ethynyl]spiro[fluorene-9,4piperidine]-1yl]-2-oxo-ethyl]pyrrolidin-2-one], the pIC50 is 10.52.

For the molecule `OC[C@H]1O[C@H](C#Cc2ccc3c(c2)[nH]c2cc(C#C[C@H]4O[C@H](CO)[C@@H](O)[C@H](O)[C@@H]4O)ccc23)[C@@H](O)[C@@H](O)[C@@H]1O` [Compound 118, (2R,3S,4R,5S,6R)-2-(hydroxymethyl)-6-[2-[7-[2-[(2R,3S,4R,5S,6R)-3,4,5-trihydroxy-6-(hydroxymethyl)tetrahydropyran-2-yl]ethynyl]-9H-carbazol-2-yl]ethynyl]tetrahydropyran-3,4,5-triol], the pIC50 was 7.66.

As for `COc1cc([C@H]2O[C@H](CO)[C@@H](O)[C@H](O)[C@@H]2O)ccc1-c1ccc([C@H]2O[C@H](CO)[C@@H](O)[C@H](O)[C@@H]2O)cc1` [Compound 67], the pIC50 is 7.40.

As for `OCCn1c2cc(C#C[C@H]3O[C@H](CO)[C@@H](O)[C@H](O)[C@@H]3O)ccc2c2ccc(C#C[C@H]3O[C@H](CO)[C@@H](O)[C@H](O)[C@@H]3O)cc21` [Compound 182, (2R,3 S,4R,5S,6R)-2-[2-[9-(2-Hydroxyethyl)-7-[2-[(2R,3 S,4R,5S,6R)-3,4,5-trihydroxy-6-(hydroxymethyl)tetrahydropyran-2-yl]ethynyl]carbazol-2-yl]ethynyl]-6-(hydroxymethyl)tetrahydropyran-3,4,5-triol], the pIC50 was 8.85.

For `OC[C@H]1O[C@H](c2ccc(C#C[C@H]3O[C@H](CO)[C@@H](O)[C@H](O)[C@@H]3O)c(F)c2)[C@@H](O)[C@@H](O)[C@@H]1O` [Compound 144], the pIC50 is 6.63.

For `Cc1cc(C#Cc2ccc([C@H]3O[C@H](CO)[C@@H](O)[C@H](O)[C@@H]3O)c(C)c2)ccc1[C@H]1O[C@H](CO)[C@@H](O)[C@H](O)[C@@H]1O` [Compound 152, (2R,3S,4R,5S,6R)-2-(hydroxymethyl)-6-[2-methyl-4-[2-[3-methyl-4-[(2R,3S,4R,5S,6R)-3,4,5-trihydroxy-6-(hydroxymethyl)tetrahydropyran-2-yl]phenyl]ethynyl]phenyl]tetrahydropyran-3,4,5-triol], the pIC50 was 7.51.

As for `Cc1cc(-c2ccc(-c3ccc([C@H]4O[C@H](CO)[C@@H](O)[C@H](O)[C@@H]4O)c(C)c3)c(C)n2)ccc1[C@H]1O[C@H](CO)[C@@H](O)[C@H](O)[C@@H]1O` [Compound 155, (2R,3S,4R,5S,6R)-2-(hydroxymethyl)-6-[2-methyl-4-[2-methyl-6-[3-methyl-4-[(2R,3S,4R,5S,6R)-3,4,5-trihydroxy-6-(hydroxymethyl)tetrahydropyran-2-yl]phenyl]-3-pyridyl]phenyl]tetrahydropyran-3,4,5-triol], the pIC50 is 7.66.

With `OC[C@H]1O[C@H](C#Cc2cc(-c3ccccc3)c(C#C[C@H]3O[C@H](CO)[C@@H](O)[C@H](O)[C@@H]3O)cc2-c2ccccc2)[C@@H](O)[C@@H](O)[C@@H]1O` [Compound 81, (2R,3S,4R,5S,6R)-2-[2-[2,5-dipheny1-4[2-[(2R,3S,4R,5S,6R)-3,4,5-trihydroxy-6-(hydroxymethyl)tetrahydropyran-2-yl]ethynyl]phenyl]ethynyl]-6-(hydroxymethyl)tetrahydropyran-3,4,5-triol], the pIC50 was 8.05.

In the case of `Cc1cc(C#C[C@H]2O[C@H](CO)[C@@H](O)[C@H](O)[C@@H]2O)ccc1C#C[C@H]1O[C@H](CO)[C@@H](O)[C@H](O)[C@@H]1O` [Compound 104, (2R,3S,4R,5S,6R)-2-(hydroxymethyl)-6-[2-[3-methyl-4-[2-[(2R,3S,4R,5S,6R)-3,4,5-trihydroxy-6-(hydroxymethyl)tetrahydropyran-2-yl]ethynyl]phenyl]ethynyl]tetrahydropyran-3,4,5-triol], the pIC50 was 7.47.

As to `OC[C@H]1O[C@H](C#Cc2cc(C#C[C@H]3O[C@H](CO)[C@@H](O)[C@H](O)[C@@H]3O)c3[nH]ncc3c2)[C@@H](O)[C@@H](O)[C@@H]1O` [Compound 212, (2R,3S,4R,5S,6R)-2-(hydroxymethyl)-6-[2-[7-[2-[(2R,3S,4R,5S,6R)-3,4,5-trihydroxy-6-(hydroxymethyl)tetrahydropyran-2-yl]ethynyl]-1H-indazol-5-yl]ethynyl]tetrahydropyran-3,4,5-triol], the pIC50 was 8.31.

As for `OCc1cc(C#C[C@H]2O[C@H](CO)[C@@H](O)[C@H](O)[C@@H]2O)c(CO)cc1C#C[C@H]1O[C@H](CO)[C@@H](O)[C@H](O)[C@@H]1O` [Compound 85, (2R,3S,4R,5S,6R)-2-[2-[2,5-bis(hydroxymethyl)-4-[2-[(2R,3S,4R,5S,6R)-3,4,5-trihydroxy-6-(hydroxymethyl)tetrahydropyran-2-yl]ethynyl]phenyl]ethynyl]-6-(hydroxymethyl)tetrahydropyran-3,4,5-triol], the pIC50 is 6.80.

On to `OC[C@H]1O[C@H](c2ccc(-c3cccc(-c4ccc([C@H]5O[C@H](CO)[C@@H](O)[C@H](O)[C@@H]5O)cc4)c3)cc2)[C@@H](O)[C@@H](O)[C@@H]1O` [Compound 66], for which the pIC50 is 7.47.

As for `O=C(c1c(C#C[C@H]2O[C@H](CO)[C@@H](O)[C@H](O)[C@@H]2O)ccc2c1C1(CCNCC1)c1cc(C#C[C@H]3O[C@H](CO)[C@@H](O)[C@H](O)[C@@H]3O)ccc1-2)C1(O)CC1` [Compound 227, [2,7-bis[2-[(2R,3S,4R,5S,6R)-3,4,5-trihydroxy-6-(hydroxymethyl)tetrahydropyran-2-yl]ethynyl]spiro[fluorene-9,4piperidine]-1yl]-(1hydroxycyclopropyl)methanone], the pIC50 was 10.22.

With `OCCc1cc(C#C[C@H]2O[C@H](CO)[C@@H](O)[C@H](O)[C@@H]2O)ccc1C#C[C@H]1O[C@H](CO)[C@@H](O)[C@H](O)[C@@H]1O` [Compound 94, (2R,3S,4R,5S,6R)-2-[2-[3-(2-hydroxyethyl)-4-[2-[(2R,3S,4R,5S,6R)-3,4,5-trihydroxy-6-(hydroxymethyl)tetrahydropyran-2-yl]ethynyl]phenyl]ethynyl]-6-(hydroxymethyl)tetrahydropyran-3,4,5-triol], the pIC50 is 7.70.

For `CCc1cc(C#C[C@H]2O[C@H](CO)[C@@H](O)[C@H](O)[C@@H]2O)c(CC)cc1C#C[C@H]1O[C@H](CO)[C@@H](O)[C@H](O)[C@@H]1O` [Compound 86, (2R,3S,4R,5S,6R)-2-[2-[2,5-diethyl-4-[2-[(2R,3S,4R,5S,6R)-3,4,5-trihydroxy-6-(hydroxymethyl)tetrahydropyran-2-yl]ethynyl]phenyl]ethynyl]-6-(hydroxymethyl)tetrahydropyran-3,4,5-triol], the pIC50 was 7.66.

On to `OC[C@H]1O[C@H](C#Cc2ccc(C#C[C@H]3O[C@H](CO)[C@@H](O)[C@H](O)[C@@H]3O)c(OC(F)(F)F)c2)[C@@H](O)[C@@H](O)[C@@H]1O` [Compound 87, (2R,3S,4R,5S,6R)-2-(hydroxymethyl)-6-[2-[3-(trifluoromethoxy)-4-[2-[(2R,3S,4R,5S,6R)-3,4,5-trihydroxy-6-(hydroxymethyl)tetrahydropyran-2-yl]ethynyl]phenyl]ethynyl]tetrahydropyran-3,4,5-triol], for which the pIC50 was 7.77.

On to `Cc1cc(-c2ccc(C#C[C@H]3O[C@H](CO)[C@@H](O)[C@H](O)[C@@H]3O)c(C)c2)ccc1C#C[C@H]1O[C@H](CO)[C@@H](O)[C@H](O)[C@@H]1O` [Compound 121, (2R,3S,4R,5S,6R)-2-(hydroxymethyl)-6-[2-[2-methyl-4-[3-methyl-4-[2-[(2R,3S,4R,5S,6R)-3,4,5-trihydroxy-6-(hydroxymethyl)tetrahydropyran-2-yl]ethynyl]phenyl]phenyl]ethynyl]tetrahydropyran-3,4,5-triol], for which the pIC50 was 7.92.

As to `O=C(CCn1cccn1)c1c(C#C[C@H]2O[C@H](CO)[C@@H](O)[C@H](O)[C@@H]2O)ccc2c1C1(CCNCC1)c1cc(C#C[C@H]3O[C@H](CO)[C@@H](O)[C@H](O)[C@@H]3O)ccc1-2` [Compound 240, 1-[2,7-bis[2-[(2R,3S,4R,5S,6R)-3,4,5-trihydroxy-6-(hydroxymethyl)tetrahydropyran-2-yl]ethynyl]spiro[fluorene-9,4piperidine]-1yl]-3-pyrazol-1-yl-propan-1-one], the pIC50 was 10.30.

Consider `CC1(O)c2cc(C#C[C@H]3O[C@H](CO)[C@@H](O)[C@H](O)[C@@H]3O)ccc2-c2ccc(C#C[C@H]3O[C@H](CO)[C@@H](O)[C@H](O)[C@@H]3O)cc21` [Compound 115, (2R,3S,4R,5S,6R)-2-(hydroxymethyl)-6-[2-[9-hydroxy-9-methyl-7-[2-[(2R,3S,4R,5S,6R)-3,4,5-trihydroxy-6-(hydroxymethyl)tetrahydropyran-2-yl]ethynyl]fluoren-2-yl]ethynyl]tetrahydropyran-3,4,5-triol], for which the pIC50 was 8.41.

As for `OC[C@H]1O[C@H](c2cccc(-c3ccc(-c4cccc([C@H]5O[C@H](CO)[C@@H](O)[C@H](O)[C@@H]5O)c4)cc3)c2)[C@@H](O)[C@@H](O)[C@@H]1O` [Compound 139, (2R,3S,4R,5S,6R)-2-(hydroxymethyl)-6-[3-[4-[3-[(2R,3S,4R,5S,6R)-3,4,5-trihydroxy-6-(hydroxymethyl)tetrahydropyran-2-yl]phenyl]phenyl]phenyl]tetrahydropyran-3,4,5-triol], the pIC50 is 7.34.
